# What was measured:
# Type in all cases: cell-based, human
# [1] = test system: FLG monomer; assay: FLG monomer in three-dimensional cultured skin, Western blotting (Example 11); details: 1 μM, immunoblotting
# Procedure: In this example, the expression-increasing effect of Compound 1 on FLG monomer was examined by using a three-dimensional cultured skin. The expression of the FLG monomer was confirmed by Western blotting.
# In this example, the same procedures as those in the steps 1) to 3) of Example 10 were conducted. It should be noted that as a medicament, D) Comparative Compound 3 (M344) was used, as well as A) Compound 1 and C) Comparative Compound 2 of Example 10.
# 4) The three-dimensional cultured skin obtained in the same manner as in the steps 1) to 3) of Example 10 was recovered, and was cut into pieces with scissors. Then, 100 μl of Lysis buffer (0.1 M Tris-HCl (pH 9.0), 6 M Urea, 1% 2-mercapto-ethanol, 1% SDS, 1 mM EDTA, and Protease inhibitor cocktail) were added and the cells were homogenized with an electrically powered pestle. The homogenized cells were centrifuged at 15,000 rpm at 4° C. for 20 minutes, and the supernatant was recovered to be used as a sample for measurement. The total protein in the sample was quantified by using a protein assay reagent (Bio-Rad Laboratories, Inc.) according to the manufacturer's protocol. The protein was adjusted so that each sample contained 15 μg protein/lane, and the samples were subjected to electrophoresis by SDS-PAGE (Invitrogen, NuPAE Novex Bis-Tris mini Gel 4 to 12%) under the conditions of 100 V and 2 hours. As a marker, Precision Plus Protein Standards (Bio-Rad Laboratories, Inc.) was used. The proteins separated by the electrophoresis were transferred to a PVDF membrane (blotting), and the expression of FLG monomer was confirmed by using an anti-FLG antibody (Filaggrin AKH1, Santa Crus). At that time, Anti-mouse IgG-HRP (GE Healthcare) was used as a secondary antibody, and Amersham ECL Plus Western Blotting Detection Reagents (GE Healthcare) was used as a color developer.
# [2] = test system: GPR142; assay: Action on adenylate cyclase activity (cAMP) in GPR142-overexpressing HEK293T cells (Examples 8 and 9); details: GPR142-overexpressing HEK293T cells, 1,000 nM, forskolin 10 μM, IBMX 1 mM, 20 minutes
# Procedure: In this example, the cAMP production-suppressing effect of Compound 1 was confirmed.
# 1) 6×10^4 cells/well of HEK293T cells were plated on a collagen-coated 24-well plate, a culture medium containing DMEM medium (Invitrogen) supplemented with penicillin (50 μg/ml), streptomycin (50 μg/ml), and fetal bovine serum (FBS) (10%, v/v) was added to the plate, and the cells were cultured under the conditions of 37° C. and 5% CO2.
# 2) A GPR142PCXN mammalian expression vector was prepared in the same manner as in the step 2) of Example 7.
# 3) After culture for 1 day under the conditions of the step 1), HEK293T cells were transfected with 0.2 μg of the GPR142PCXN mammalian expression vector per well by using a transfection reagent Fugene™ HD (Promega Corporation) according to the manufacturer's protocol. As a control, cells transfected only with the PCXN mammalian expression vector were used.
# 4) After culture for 1 day after the transfection described above, 1 mM of isobutylmethylxanthine (IBMX), which was a cAMP phosphodiesterase inhibitory substance, was added to HEK293T cells, and thereafter, the cells were cultured for 10 minutes at 37° C.
# 5) Next, the medium was exchanged for the culture medium to which 0.1 nM to 1000 nM of a DMSO solution of Compound 1, 10 μM of forskolin, and 1 mM of IBMX per well were added, and the cells were further cultured for 20 minutes at 37° C. As a control, a solvent (vehicle), 10 μM of forskolin, and 1 mM of IBMX were added.
# 6) The cells cultured in the step 5) were lysed by 0.1 mol/L of HCl. The cAMP concentration within the cells was measured by using Cyclic AMP EIA Kit (Cayman Chemical Company) according to the manufacturer's protocol. The result is shown as the ratio (%) of the cAMP concentration in the cells treated with Compound 1 with respect to the cAMP concentration in the control example defined as 100%.
# In this example, the cAMP production-suppressing effect of Compound 2 or 3 was confirmed.
# HEK293T cells were cultured in the same manner as in the steps 1) to 4) of Example 8. Next, the cells were cultured in the same manner as in the step 5) of Example 8 except that, in the step 5) of Example 8, each of a methanol solution of Compound 3, a DMSO solution of Compound 2, and a DMSO solution of Comparative Compound 2 was used at 1,000 nM per well instead of Compound 1. The cAMP concentration in the cultured cells was measured in the same manner as in the step 6) of Example 8.
# [3] = test system: GPR142; assay: Blocking effect by GPR142 RNAi in NHEK cells (Examples 5 and 6); details: GPR142 siRNA, compound 10 nM, 1 day
# Procedure: In this example, it was confirmed that the expression-inducing effects of Compound 1 on GPR142 mRNA and FLG mRNA in NHEK cells were blocked by GPR142 RNAi.
# 1) 5×10^4 cells/well of NHEK cells (Invitrogen) were plated on a 24-well plate. Then, 500 μl of a culture medium containing a medium for proliferating normal human epidermal keratinocytes (HuMedia-KG2, KURABO INDUSTRIES LTD.) supplemented with hEGF (0.1 ng/ml), insulin (10 μg/ml), hydrocortisone (0.5 μg/ml), gentamycin (50 μg/ml), amphotericin B (50 ng/ml), and bovine brain pituitary extract (BPE) (0.4%, v/v) were added to the plate, and the cells were cultured under the conditions of 37° C. and 5% CO2.
# 2) After culture under the conditions of the step 1) for 1 day, the medium was exchanged for the culture medium of the step 1) to which CaCl2 (1.2 mM in terms of Ca) was further added as Ca, and culture was conducted under the conditions of 37° C. and 5% CO2. After culture for 1 day, the medium was exchanged for the same culture medium containing Ca, and culture was further conducted for 1 day.
# 3) The NHEK cells of the step 2) were transfected with 50 nM of siRNA per well of the 24-well plate by using a transfection reagent, Lipofectamine RNA Max (Invitrogen) according to the manufacturer's protocol.
# The sequences of the used three kinds of GPR142 siRNAs and the sequences of the used control siRNAs (all the siRNAs are manufactured by Invitrogen) are described below.
# 4) After culture for 1 day after the transfection with siRNA in the step 3), the medium was exchanged for the culture medium of the step 1) to which a DMSO solution of Compound 1 was added at 10 nM per well, and culture was further conducted for 1 day. As a control, a solvent only (vehicle) was added.
# 5) An extraction reagent (TRIzol™, Invitrogen) was used, and according to the manufacturer's protocol, total RNA was extracted from each of cells treated with the medicament. A reverse transcriptase reagent (Prime Script™, Takara) was used, and according to the manufacturer's protocol, cDNA was prepared from the total RNA. Next, real-time PCR was conducted by using the following primers and SYBR™ Premix Ex Taq (Takara) with a CFX96 real-time PCR instrument according to the manufacturer's protocol, and the amounts of GPR142 mRNA and FLG mRNA expression were measured. The result of measurement is shown as a GAPDH ratio.
# In this example, it was confirmed that the expression-inducing effects of Compound 2 or 3 on GPR142 mRNA and FLG mRNA in NHEK cells were blocked by GPR142 RNAi.
# NHEK cells were transfected in the same manner as in Example 5 except that, in the steps 1) to 3) of Example 5, two kinds of GPR142 siRNAs and two kinds of control siRNAs, i.e., GPR142-1 (#HSS139493) and GPR142-3 (#HSS179846) and Control-1 (LOW GC, #129350-200), and Control-3 (HIGH GC, #129350-400) were used as GPR142 siRNAs and control siRNAs, respectively. After culture for 1 day after the transfection was conducted in the same manner as in the step 4) of Example 5, the medium was exchanged for the culture medium to which each of a DMSO solution of Compound 1, a DMSO solution of Compound 2, or a methanol solution of Compound 3 was added at 10 nM per well, and culture was further conducted for 1 day. As a control, a solvent only (vehicle) was added. Regarding each of cells treated with the medicament, real-time PCR was conducted to measure the amounts of GPR142 mRNA and FLG mRNA in the same manner as in the step 5) of Example 5. The results of the measurement are shown as a GAPDH ratio.
Compound,production of FLG monomer [1],decrease of cAMP production [2],induction of FLG mRNA expression: dependence on GPR142 [3]
"CN(C)c1ccc(C(=O)NCCCCCCC(=O)NO)cc1 [Comparative Compound 3, 4-Dimethylamino-N-(6-hydroxycarbamoylhexyl)benzamide, reference compound]",clear production of FLG monomer was not observed,,
"COC(=O)CNC(Cc1ccccc1)C(=O)Nc1cc(-c2ccncc2)nn1C.Cl.Cl (stereo not drawn) [Compound 3, Methyl 2-(1-(1-methyl-3-(pyridine-4-yl)-1H-pyrazol-5-ylamino)-1-oxo-3-phenylpropan-2-ylamino)acetate dihydrochloride]",,about 24%,mediated by GPR142
